Results taken from patent US10675267B2, “Methods for detection and eradication of myeloid leukemia stem cells” (priority 2015, dated 2020).
Entries after “also recorded” stand apart in the source; their conditions may differ.

Legend:
[1] = test system: human CD34+ cells from treated mice (DNAJB1, MCL1, BCL2, BCLX, SF3B1 transcripts); test: qRT-PCR / RT-PCR of in vivo splicing alterations in CD34-selected human cells from treated AML PRIMAGRAFT mice
Procedure: For in vivo treatments, a 10 mg/mL stock solution of 17S-FD-895 solubilized in DMSO was used. After randomization, AML-engrafted mice were dosed intravenously with 17S-FD-895 (5-10 mg/kg) or vehicle (for AML-08, vehicle control=15% DMSO in PBS; for AML-37, vehicle control=20% DMSO in PBS) three times over a two-week period, with the first dose given on day 1, the second on day 7, and the third on day 14. For preparation of RNA from human LSC-enriched populations, single cell suspensions from spleen and bone marrow were CD34 double-selected (over two LS selection columns, Miltenyi) and 1-2×10^5 cells were collected in lysis buffer or pooled according to treatment group for serial transplantation assays.
For qRT-PCR analysis of relative total mRNA expression levels or splice isoform-specific expression analyses, cDNA was synthesized using 50 ng-1 […] of template RNA in 20 μL reaction volumes using the First-Strand SUPERSCRIPT™ III Reverse Transcriptase Supermix (Life Technologies) followed by incubation with RNase H according to the manufacturer's protocol and as described previously. All cDNA products were stored at −20° C. Splice isoform-specific primers for PTK2B-202 were designed to bind to unique exon junctions for this transcript, which lacks exon 24. All primers (Table 2) were diluted to 10 μM working dilutions in DNase/RNase-free water. qRT-PCR was performed in duplicate using cDNA (1 μL reverse transcription product per reaction) on an iCycler (Bio-Rad, Hercules, Calif.) using SYBR® GREENER™ Super Mix (Life Technologies) in 25-μL volume reactions containing 0.2 μM of each forward and reverse primer. Cycling conditions were as follows: 50° C. for 2 minutes, then 95° C. for 8 minutes and 30 seconds, followed by 40 cycles of 95° C. for 15 seconds and 60° C. for 60 seconds. Melting curve analysis was performed on each plate according to the manufacturer's instructions. For standard qRT-PCR, human HPRT mRNA transcript levels were used to normalize Ct values obtained for each gene, and relative expression levels were calculated using the 2^−ddCt method. To ensure validity of results, only Ct values <35 were used in gene expression analyses. All primer sets were tested in a no-template control (NTC) reaction containing only water instead of cDNA, and all gave Ct values >35 in NTC reactions.
The 17S-FD-895 dosing regimen was selected as the maximum number of doses possible for the treatment of three experimental groups with the amount of synthesized compound that was available, and is consistent with weekly IV dosing regimens used in clinical trials of spliceosome inhibitory compounds in patients with solid tumors. Animals were euthanized within two hours after delivery of the final dose of 17S-FD-895, and peripheral blood, spleens and bone marrows were collected for analysis of total human cell and stem and progenitor cell engraftment, and for RNA extraction for splice isoform-specific qRT-PCR.
For qRT-PCR analysis of relative total mRNA expression levels or splice isoform-specific expression analyses, cDNA was synthesized using 50 ng-1 […] reaction volumes using the First-Strand SUPERSCRIPT™ III Reverse Transcriptase Supermix (Life Technologies) followed by incubation with RNase H according to the manufacturer's protocol and as described previously (Abrahamsson et al., 2009; Crews et al., 2015). All cDNA products were stored at −20° C. Splice isoform-specific primers for PTK2B-202 were designed to bind to unique exon junctions for this transcript, which lacks exon 24. All primers (Supplemental Experimental Procedures Table) were diluted to 10 ∝M working dilutions in DNase/RNase-free water. qRT-PCR was performed in duplicate using cDNA (1 ∝Λ reverse transcription product per reaction) on an iCycler (Bio-Rad, Hercules, Calif.) using SYBR® GREENER™ Super Mix (Life Technologies) in 25-∝A volume reactions containing 0.2 ∝M of each forward and reverse primer. […]

[2] = test system: AML-08 human LSC engrafted in NSGS mice; test: De novo AML PRIMAGRAFT model AML-08: FACS engraftment analysis and serial transplantation; assay type: in vivo, mouse
Procedure: All animal studies were performed in accordance with UCSD and NIH-equivalent ethical guidelines and were approved by the Institutional Animal Care and Use Committee (IACUC protocol # S06015). For all in vivo experiments, animals of both genders were utilized. Three AML PRIMAGRAFT™ models were established by transplanting AML LSC-enriched cell fractions (either CD34-selected or FACS-purified stem or progenitor cell fractions from primary patient samples) into immunocompromised Rag2^−/−γc^−/−[20] or NOD/SCID-IL2RG mice (Jackson Laboratory) constitutively expressing human SCF, GM-CSF and IL-3 (NSGS) (FIGS. 8A-8D). […]
Mice transplanted with 1-2×10^5 CD34^+ AML LSC-enriched fractions or no-transplant controls were screened for human hematopoietic cell engraftment (CD45^+ cells) in peripheral blood by FACS starting at 7-10 weeks post transplant. At 7-28 weeks post-transplant (7-36 weeks old), mice were euthanized, and peripheral blood and single cell suspensions of hematopoietic organs were analyzed for human cell engraftment by FACS. […]
Flow cytometric analysis was performed on single cell suspensions from each hematopoietic tissue essentially as for primary patient samples, and frequencies of total live human CD45^+ cells, and CD45^+CD34^+CD38^− Lin^− (stem) and CD45^+CD34^+CD38^+ Lin^− (progenitor) cells were determined in each tissue. […]

[3] = CD34+ cells of individual treated mice versus vehicle
[4] = pooled CD34+ cells used for serial transplantation

SMILES: CC[C@H](OC)[C@@H](C)[C@H]1O[C@@H]1[C@@H](O)[C@H](C)/C=C/C=C(\C)[C@H]1OC(=O)C[C@H](O)CC[C@@](C)(O)[C@@H](OC(C)=O)/C=C/[C@@H]1C (stereo in doubt) [Formula 17S-FD-895, 17S-FD-895]
- BCL2L1-L/S expression ratio ([1]; CD34+ cells of individual treated mice versus control): significant reduction
- BCL2-L/S expression ratio [1, 3]: significant reduction
- MCL1-L/S expression ratio [1, 3]: significant reduction
- SF3B1 mRNA expression ([1]; after treatment, individual mice and pooled samples): unchanged
- DNAJB1 intron 2 expression / retention ([1]; human CD34+ cells from treated mice versus vehicle): increased DNAJB1 intron 2 expression; also recorded: increased DNAJB1 intron 2 retention
- MCL1-L/S expression ratios, pooled cells [1, 4]: dramatically reduced; also recorded: significantly reduced
- MCL1 exon 1-3 splicing pattern (RT-PCR) [1, 4]: MCL1 exon skipping and intron inclusion
- circulating leukemic cells in secondary recipients ([2]; de novo AML model, lower dose): trend towards decreased circulating leukemic cells
- decrease in circulating leukemic burden in secondary recipients ([2]; model with high disease burden, serial transplantation, p=0.07): 49%
